Assay results from US12458688B2, “Epitopes” (Scancell Limited, priority 2018, dated 2025).
Where no end group is shown, it is not given here. [ ]: non-standard residue; d: D form. hCit = NC(=O)NCCCC[C@H](N)C(=O)O

T1: HLA-DP4 (Homo sapiens, UniProt P04440+P20036)
T1 sequence (P20036 29-260): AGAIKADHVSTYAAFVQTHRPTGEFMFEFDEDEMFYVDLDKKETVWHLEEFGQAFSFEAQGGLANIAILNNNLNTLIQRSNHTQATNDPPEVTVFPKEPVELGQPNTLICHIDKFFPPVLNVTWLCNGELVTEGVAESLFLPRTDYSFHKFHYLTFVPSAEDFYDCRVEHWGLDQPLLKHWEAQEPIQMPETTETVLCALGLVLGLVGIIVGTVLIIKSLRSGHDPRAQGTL
T1 sequence (P04440 30-258): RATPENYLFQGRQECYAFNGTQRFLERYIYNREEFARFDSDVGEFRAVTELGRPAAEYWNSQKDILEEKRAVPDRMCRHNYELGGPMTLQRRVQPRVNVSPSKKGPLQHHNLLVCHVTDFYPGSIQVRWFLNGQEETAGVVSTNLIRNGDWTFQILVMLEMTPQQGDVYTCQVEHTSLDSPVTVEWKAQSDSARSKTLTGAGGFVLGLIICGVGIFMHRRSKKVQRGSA

B1: Aldolase A 74-93 Hcit (peptide)
peptide: IGGVILFHETLYQ[hCit]ADDGRP
B2: Vimentin 116-135 Hcit (peptide)
peptide: NYID[hCit]VRFLEQQN[hCit]ILLAEL
B3: Aldolase A 140-157 Hcit (peptide)
peptide: [hCit]DGADFA[hCit]WRCVL[hCit]IGEH
B4: Cytokeratin 8 112-131 Hcit (peptide)
peptide: LEQQN[hCit]MLET[hCit]WSLLQQQ[hCit]T
B5: Cytokeratin 8 101-120 Hcit (peptide)
peptide: KFASFID[hCit]VRFLEQQN[hCit]MLE
B6: Cytokeratin 8 381-399 Hcit (peptide)
peptide: [hCit]LALDIEIATYR[hCit]LLEGEE
B7: Aldolase A 217-235 Hcit (peptide)
peptide: LSDHHVYLEGTLL[hCit]PNMVT

Assays:
HLA-DR4 mice = assay: Ex vivo IFNγ ELISpot after peptide immunisation, HLA-DR4 mice; format: in vivo, mouse
Experimental: (§1) C57BL/6 mice (Charles River, UK), HLA-DR4 mice (Model #4149, Taconic, USA), HLA-A2/DR1 (HHDII/DR1, Pasteur Institute), HLA-A2.1+/+HLA-DP4+/+hCD4+/+ (HLA-HHDII/DP4) transgenic mice (EM: 02221, European Mouse Mutant Archive) described in patent WO2013/017545 A1 (EMMA repository, France) were used, aged between 8 and 12 weeks. Peptides were dissolved in PBS to 1 mg/ml and then emulsified (a series of dilutions) with CpG ODN 1826 and MPLA 6 μg/mouse of each (Invivogen, UK). Peptides (25 μg/mouse) were injected subcutaneously at the base of the tail. Mice were immunised at days 1, 7 and 14 for peptide immunisation. Spleens were removed for analysis at day 21 unless stated otherwise.
(§2) ELISpot assays were performed using murine IFNγ, IL-17 and IL-10 capture and detection reagents according to the manufacturer's instructions (Mabtech, Sweden). In brief, anti-IFNγ, IL-17 and IL-10 specific antibodies were coated onto wells of 96-well Immobilin-P plate. Synthetic peptides (at various concentrations) and 5×10^5 per well splenocytes were added to wells of the plate in quadruplicate Tumour target cells were added where relevant at 5×10^4/well in triplicate and plates incubated for 40 hrs at 37° C. After incubation, captured IFNγ, IL-10 and IL-17 were detected by biotinylated anti-IFNγ, IL-10 and IL-17 antibodies and developed with a streptavidin alkaline phosphatase and chromogenic substrate. Lipopolysaccharide (LPS; 5 μg/ml) was used as a positive control. For MHC blocking studies, anti-CD4 blocking antibody (GK1.5) or anti-CD4 blocking antibody (RPA-T4) for HHDII/DP4 mice which express human CD4 and anti-CD8 blocking antibody (2.43) from Bioxcell were used at 20 μg/ml. Spots were analysed and counted using an automated plate reader (Cellular Technologies Ltd).
(§3) Screening was performed to identify potential homocitrullinated vimentin epitopes in mice. Mice were immunised with pools of homocitrullinated peptides. […] Each pool was administered as three immunisations containing 20 μg of each peptide and CpG/MPLA as an adjuvant on day 1, 8 and 15. On day 21 the mice were culled and the immune responses to each peptide within the immunising pool were assessed by ex vivo ELISpot. Given that different mouse strains have different MHC repertoires a number of strains were used for screening. Peptide responses were assessed in transgenic strains expressing human DR4 or HHDII/DR1 in a C57BL/6 background (see methods).

HLA-HHDII/DR1 mice = assay: Ex vivo IFNγ ELISpot after peptide immunisation, HHDII/DR1 mice; format: in vivo, mouse
Experimental: as §1, §2
as §3, with “methods). […]” for “methods).”
The five selected homocitrullinated Cyk8 peptides were also screened in HHDII/DR1 transgenic mice. […] Response to Cyk8 112Hcit peptide in the HHDII/DR1 mice was lost in the presence of CD8 blocking antibody but less effect of the CD4 blocking antibody was seen (FIG. 12b). […] Responses to homocitrullinated Cyk8 peptides show both CD4 and CD8 mediated responses.

HLA-DP4 = target: T1, HLA-DP4; assay: DP4 competition assay with biotinylated Hep B peptide; conditions: inhibition of biotinylated Hep B binding to HLA-DP4; 5 fold excess test peptide, equal amount for unlabelled Hep B
Experimental: 2×T175 gave 2.5×10^7 B16 HHDII/DP4 (B16F1 β2M H2Ab1 dKO A35 HHDII/DP4 H7/2E9/F9 p14) cells. This was enough for 5 preps using the following protocol with Mem-PER™ Plus Membrane Protein Extraction Kit (thermo-scientific cat #89842).
5×10^6 cells were resuspended in the growth media by scraping the cells off the surface of the plate with a cell scraper and then centrifuged at 300 g for 5 mins. The cell pellet was washed with 3 ml of Cell Wash Solution and centrifuged at 300 g for 5 mins. The supernatant was removed and discarded. The cells were resuspended in 1.5 ml of Cell Wash Solution and transfer to a 2 ml centrifuge tube and centrifuged at 300 g for 5 mins. The supernatant was discarded. 0.75 ml of permeabilization buffer was added to the cell pellet and vortexed briefly to obtain a homogeneous cell suspension and incubated for 10 mins at 4° C. with constant mixing. The permeabilized cells were centrifuge for 15 mins at 16,000g before carefully removing the supernatant containing cytosolic proteins and transfering to a new tube. 0.5 ml of solubilization buffer was added to the pellet and resuspend prior to incubating at 4° C. for 30 minutes with constant mixing prior to centrifugation at 16,000g for 15 mins at 4° C. The supernatant containing solubilized membrane and membrane-associated proteins was transfered to a new tube. Aliquots were frozen at −80° C. for future use. 12.5 μl Halt™ Protease and Phosphatase Inhibitor Cocktail, EDTA-free (100X) thermo-scientific (Catalog number 78445) was added prior to freezing.
High binding plates were coated with streptavidin (Sigma S4762 at 1 mg/ml) 1/500 in PBS and incubated overnight at 4° C. The plates were blocked with 1% BSA in PBS for 4 hrs at room temp and washed 3×PBS/0.5% Tweenx. 450 μl of cell prep lysate (B16F1 B16 HHDII/DP4 H7/2E9/F9) was mixed with 50 μg test peptide (see below) or 10 μg of unlabelled Hep B peptide for 30 mins. 10 μg biotinylated Hep B peptide was added & incubated for 4 hrs at 37° C.:
Lysate/peptide mix was added to the plates at 100 μl/well and incubated for 4 hrs at room temperature. Plates were washed 3× with PBS/0.5% Tween. 100 μl per well of Leinco anti-Human HLA-DP4 clone B7/21 #H260 1 mg/ml at 1/500 dilution in 1% BSA/PBS was added and incubated for 1 hr at room temperature prior to washing 3× PBS/0.5% Tween. Goat anti-mouse lgG3-HRP at 0.5 mg/ml 1/500 100 μl per well (Invitrogen #M32607) diluted in 1% BSA/PBS) was added for 1 hr at room temperature prior to washing and adding 150 μl of TMB substrate to each well. The reaction was stopped with 50 μl of 2N H2SO4 and plates read plate at 450 nm.
To ensure that the biotinylation of Hep B had not interfered with its binding, HLA-DP4 was incubated with equal amounts of biotinylated and unlabelled Hep B peptide. Unlabelled peptide competed equally reducing binding by 47% (FIG. 53b).
The biotinylated HepB peptide was then incubated with a 5 fold excess of the unlabelled homocitrulline peptides. All peptides inhibited the binding of biotinylated Hep B to HLA-DP4 but to varying levels (FIG. 53c-e).

HLA transgenic mice = assay: T cell response to Hcit peptides in HLA transgenic mice (screening, ex vivo ELISpot); design: species or system mouse; conditions: yes/no; Hcit peptide with CpG/MPLA
Experimental: as §1, §2, §3
(§4) Screening was performed to identify potential homocitrullinated ALDOA epitopes in transgenic HHDII/DP4 and HHDII/DR1 mice. Mice were immunised with pools of human homocitrullinated peptides. […] Each pool was administered as three immunisations containing 20 μg of each peptide and CpG/MPLA as an adjuvant. After 21 days the mice were culled and the immune responses to each peptide within the immunising pool were assessed by ex vivo ELISpot in HHDII/DP4 (FIG. 4b) and HHDII/DR1 mice (FIG. 4d).
as §4, with “Using this combination of predictions, 5 CyK8 peptides containing homocitrulline were synthesised (Table 4). Screening” for “Screening”, “Cyk8” for “ALDOA”, “HHDII/DP4.” for “HHDII/DP4 and HHDII/DR1 mice.”, “10a).” for “4b) and HHDII/DR1 mice (FIG. 4d).”

B16F1 HHDII/DR1 tumours = assay: Tumour therapy, B16F1 HHDII/DR1 tumour in HHDII/DR1 mice; format: in vivo, mouse; conditions: peptide with CpG/MPLA days 4, 11, 18
Excerpt: To determine if the epitopes that stimulate T cell responses are presented on MHC-II within the tumour environment, our homocitrullinated peptides were checked for tumour therapy in B16 tumour models. Mice were implanted with tumour cells on day 1 and then immunised with peptides and CpG/MPLA on days 4, 11 and 18.
HHDII/DR1 (FIG. 19a) or DR4 (FIG. 19b) transgenic mice were challenged with B16F1 HHDII/DR1 or B16F1 DR4 tumours respectively prior to immunisation with vimentin 116-135Hcit peptide and tumour growth and survival were monitored.
HHDII/DR1 mice were implanted with B16HHDII/DR1 tumour cells on day 1 and then immunised with Cyk8 371Hcit, 112hcit or both peptides and CpG/MPLA on days 4, 11 and 18.

HLA-DP4 (human) = assay: DP4 competition ELISA; competitor biotinylated Hep B peptide; 5 fold excess of unlabelled peptide
[1] = 3 immunisations with CpG/MPLA, day 21

Molecule	T cell response (HLA transgenic mice)	% inhibition (HLA-DP4 (human))	also measured
KVRFLEQQN-Hcit-LLAE [Vimentin 120-134 Hcit]			cross reactivity of vimentin 116-135 Hcit response to shorter Hcit peptide (HLA-DR4 mice): Cross reactivity was seen; cross reactivity of vimentin 116-135 Hcit response to shorter Hcit peptide (HLA-HHDII/DR1 mice): Cross reactivity was seen
LSDHHVYLEGTLL-hcit-PNMVT (LSDHHVYLEGTLL[hCit]PNMVT) [Aldolase A 217-235 Hcit]	no		% inhibition (HLA-DP4): 84%
EAEEWY-Hcit-S-Hcit-FADLSEAAN [Vimentin 286-303 Hcit]	no		
hcit-CPLL-hcit-PWALTFSYGRALQ ([hCit]CPLL[hCit]PWALTFSYGRALQ) [Aldolase A 289-307 Hcit]	no		% inhibition (HLA-DP4): 45%
LPLVDTHS-Hcit-RTLL-Hcit-TVETRDGQV [Vimentin 431-454 Hcit]	no		
QIDVDVS-Hcit-PDLTAALRDVRQQ [Vimentin 255-275 Hcit]	no		
NYIDKVRFLEQQNKILLAEL [Vim 116-135 WT, unmodified wild type vimentin 116-135 peptide, reference compound]			IFNγ ELISpot response (HLA-DR4 mice; [1]): failed to induce any responses; anti-tumour response / survival vs control (B16F1 HHDII/DR1 tumours): did not show a significant anti-tumour response; IFNγ ELISpot response (HLA-HHDII/DR1 mice; [1]): failed to induce any responses; % inhibition (HLA-DP4): 48%
B1		69%	
B2		44%	
B3		76%	
B4		64%	
B5		71%	
B6		60%	
B7		84%	
